According to PMC10041525, “New Dual Inhibitors of Bacterial Topoisomerases with Broad-Spectrum Antibacterial Activity and In Vivo Efficacy against Vancomycin-Intermediate Staphylococcus aureus” (Journal of Medicinal Chemistry, 2023):
Read-outs that look alike come from different tables or passages of the source.

Columns and labels:
S. pneumoniae ATCC 49619 [1] = tested on: S. pneumoniae ATCC 49619; parameters: method as in earlier work; details: QC range for S. pneumoniae ATCC 49619, ref CLSI; cited from earlier work
E. faecalis ATCC 29212 [2] = tested on: E. faecalis ATCC 29212; parameters: method as in earlier work; details: QC range for E. faecalis ATCC 29212, ref CLSI; cited from earlier work
S. pneumoniae ATCC 49619 [3] = assay: IHMA QC MIC; format: cell-based
Source text: (§1) Supplement jm2c01905_si_004.xlsx, sheet "QC" | column: MIC [µg/mL]

H. influenzae ATCC 49766 = assay: IHMA QC MIC; format: cell-based
Source text: as §1

E. faecalis ATCC 29212 [4] = assay: IHMA QC MIC; format: cell-based
Source text: as §1

H. influenzae ATCC 49247 = assay: IHMA QC MIC; format: cell-based; details: Haemophilus influenzae, read-out: MIC
Source text: as §1

E. faecium (n = 13) = assay: MIC broth microdilution at IHMA Europe; format: cell-based; details: for MIC: Enterococcus faecium, read-out: MIC
E. coli ATCC 25922 [5] = tested on: E. coli ATCC 25922; parameters: method as in earlier work; details: QC range for E. coli ATCC 25922, ref CLSI; cited from earlier work
P. aeruginosa ATCC 27853 [6] = tested on: P. aeruginosa ATCC 27853; parameters: method as in earlier work; details: QC range for P. aeruginosa ATCC 27853, ref CLSI; cited from earlier work
S. pneumoniae (n = 12) = assay: MIC broth microdilution at IHMA Europe; format: cell-based; details: for MIC: Streptococcus pneumoniae, read-out: MIC
P. aeruginosa ATCC 27853 [7] = assay: IHMA QC MIC; format: cell-based; details: for MIC: Pseudomonas aeruginosa
E. coli ATCC 25922 [8] = assay: IHMA QC MIC; format: cell-based; details: Escherichia coli
E. coli ATCC 35218 = assay: IHMA QC MIC; format: cell-based; details: Escherichia coli, ATCC35218; read-out: MIC (QC, repeated tests)
Description: (§2) The panel of Hungarian clinical isolates and controls measured following the same method as detailed above, and albeit measurements were carried out in 384-well microtiter plates (Corning Inc.).

A. baumannii ATCC 17978 = assay: IHMA QC MIC; format: cell-based; details: Acinetobacter baumannii, ATCC17978; read-out: MIC (QC, repeated tests)
Description: as §2

[9] = tested on: Haemophilus influenzae (n = 14); assay: MIC broth microdilution at IHMA Europe; format: cell-based, H. influenzae; details: for MIC: Haemophilus influenzae, read-out: MIC

C[C@@H](O)[C@H]1C(=O)N2C(C(=O)O)=C(SCCNC=N)C[C@H]12 [Imipenem, imipenem]
0,5 - 2 µg/mL: MIC, CLSI Range (E. faecalis ATCC 29212 [2])
7.7%: Cumulative % at MIC (E. faecium (n = 13); MIC […] µg/mL)
0.06 µg/mL: MIC (S. pneumoniae (n = 12); S. pneumoniae IHMA N° 2117109)
≤ 0.25 µg/mL: MIC (E. coli ATCC 25922 [8]; ATCC25922, read-out: MIC (QC, repeated tests)) | MIC (E. coli ATCC 35218) | MIC (A. baumannii ATCC 17978)
0,03 - 0,12 µg/mL: MIC, CLSI Range (S. pneumoniae ATCC 49619 [1])
≤ 0.015 µg/mL: MIC (S. pneumoniae (n = 12); S. pneumoniae IHMA N° 1800765) | MIC (S. pneumoniae (n = 12); S. pneumoniae IHMA N° 1831562)
100.0%: Cumulative % at MIC (E. faecium (n = 13); MIC >32 µg/mL) | Cumulative % at MIC (S. pneumoniae (n = 12); MIC 1 µg/mL) | Cumulative % at MIC ([9]; MIC 1 µg/mL)
0.03 µg/mL: MIC (S. pneumoniae ATCC 49619 [3]; QC strain S. pneumoniae ATCC 49619, test date 2021-11-26) | MIC (S. pneumoniae ATCC 49619 [3]; Streptococcus pneumoniae, ATCC49619, QC strain S. pneumoniae ATCC 49619, test date 2021-11-11, read-out: MIC)
> 32 µg/mL: MIC (E. faecium (n = 13); E. faecium IHMA N° 1764866) | MIC (E. faecium (n = 13); E. faecium IHMA N° 1765746) | MIC (E. faecium (n = 13); E. faecium IHMA N° 1893573) | MIC (E. faecium (n = 13); E. faecium IHMA N° 1893846) | MIC (E. faecium (n = 13); E. faecium IHMA N° 1893942) | MIC (E. faecium (n = 13); E. faecium IHMA N° 1894055) | MIC (E. faecium (n = 13); E. faecium IHMA N° 1897027) | MIC (E. faecium (n = 13); E. faecium IHMA N° 1897101) | MIC (E. faecium (n = 13); E. faecium IHMA N° 1904592) | MIC (E. faecium (n = 13); E. faecium IHMA N° 2075051) | MIC (E. faecium (n = 13); E. faecium IHMA N° 2077718) | MIC (E. faecium (n = 13); E. faecium IHMA N° 2083787)
25.0%: Cumulative % at MIC (S. pneumoniae (n = 12); MIC 0.06 µg/mL)
0.5 µg/mL: MIC (H. influenzae ATCC 49766; Haemophilus influenzae, ATCC49766, QC strain H. influenzae ATCC 49766, test date 2021-11-11, read-out: MIC) | MIC (H. influenzae ATCC 49766; QC strain H. influenzae ATCC 49766, test date 2021-11-26) | MIC ([9]; H. influenzae IHMA N° 1241620) | MIC ([9]; H. influenzae IHMA N° 1244149) | MIC ([9]; H. influenzae IHMA N° 1254355) | MIC ([9]; H. influenzae IHMA N° 1258580) | MIC ([9]; H. influenzae IHMA N° 1262734) | MIC ([9]; H. influenzae IHMA N° 1272723) | MIC ([9]; H. influenzae IHMA N° 1286846) | MIC ([9]; H. influenzae IHMA N° 1479509) | MIC ([9]; H. influenzae IHMA N° 2047461)
0.12 µg/mL: MIC (H. influenzae ATCC 49247; ATCC49247, QC strain H. influenzae ATCC 49247, test date 2021-11-26) | MIC (S. pneumoniae (n = 12); S. pneumoniae IHMA N° 1811259) | MIC (S. pneumoniae (n = 12); S. pneumoniae IHMA N° 1902609) | MIC (S. pneumoniae (n = 12); S. pneumoniae IHMA N° 2057487) | MIC (E. coli ATCC 25922 [8]; ATCC25922, QC strain E. coli ATCC 25922, test date 2021-11-26, read-out: MIC) | MIC ([9]; H. influenzae IHMA N° 1440085) | MIC ([9]; H. influenzae IHMA N° 1952952)
0.25 µg/mL: MIC (H. influenzae ATCC 49247; ATCC49247, QC strain H. influenzae ATCC 49247, test date 2021-11-11) | MIC (S. pneumoniae (n = 12); S. pneumoniae IHMA N° 1775387) | MIC (S. pneumoniae (n = 12); S. pneumoniae IHMA N° 1776057) | MIC (S. pneumoniae (n = 12); S. pneumoniae IHMA N° 1785617) | MIC (S. pneumoniae (n = 12); S. pneumoniae IHMA N° 1979675) | MIC (S. pneumoniae (n = 12); S. pneumoniae IHMA N° 2073087) | MIC ([9]; H. influenzae IHMA N° 1249803)
0,06 - 0,25 µg/mL: MIC, CLSI Range (E. coli ATCC 25922 [5])
2: No. of isolates at MIC (S. pneumoniae (n = 12); MIC ≤0.015 µg/mL) | No. of isolates at MIC ([9]; MIC 1 µg/mL)
1 µg/mL: MIC (E. faecalis ATCC 29212 [4]; Enterococcus faecalis, ATCC29212, QC strain E. faecalis ATCC 29212, test date 2021-11-11, read-out: MIC) | MIC (E. faecalis ATCC 29212 [4]; QC strain E. faecalis ATCC 29212, test date 2021-11-26) | MIC (S. pneumoniae (n = 12); S. pneumoniae IHMA N° 1991963) | MIC (QC, repeated tests) (P. aeruginosa ATCC 27853 [7]) | MIC ([9]; H. influenzae IHMA N° 1227715) | MIC ([9]; H. influenzae IHMA N° 1337530)
9: No. of isolates at MIC ([9]; MIC 0.5 µg/mL)
1: No. of isolates at MIC (E. faecium (n = 13); MIC […] µg/mL) | No. of isolates at MIC (S. pneumoniae (n = 12); MIC 0.06 µg/mL) | No. of isolates at MIC (S. pneumoniae (n = 12); MIC 1 µg/mL)
12: No. of isolates at MIC (E. faecium (n = 13); MIC >32 µg/mL)
85.7%: Cumulative % at MIC ([9]; MIC 0.5 µg/mL)
2 µg/mL: MIC (P. aeruginosa ATCC 27853 [7]; ATCC27853, QC strain P. aeruginosa ATCC 27853, test date 2021-11-11, read-out: MIC) | MIC (P. aeruginosa ATCC 27853 [7]; ATCC27853, QC strain P. aeruginosa ATCC 27853, test date 2021-11-26, read-out: MIC) | MIC (P. aeruginosa ATCC 27853 [7]; ATCC27853, read-out: MIC (QC, repeated tests))
1 to 4 µg/mL: MIC, CLSI Range (P. aeruginosa ATCC 27853 [6])
16 µg/mL: MIC (E. faecium (n = 13); E. faecium IHMA N° 1765436)
16.7%: Cumulative % at MIC (S. pneumoniae (n = 12); MIC ≤0.015 µg/mL)
